In assay [1] the test system is Receptor-type tyrosine-protein kinase FLT3 (Homo sapiens), P36888 [UNDEFINED MUTATION]. Briefly: Inhibition of FLT3 ITD mutant (unknown origin) at 1 uM by Ambit Kinomescan binding assay relative to control; values are per cent of control.
Assay [2] addresses Casein kinase II subunit alpha' (Homo sapiens) (UniProt P19784). Nature of the assay: Inhibition of CSNK2A2 (unknown origin) at 1 uM by Ambit Kinomescan binding assay relative to control; values are per cent of control.
Assay [3] has as its target Calcium/calmodulin-dependent protein kinase type II subunit delta (Homo sapiens) (UniProt Q13557). Nature of the assay: Inhibition of CAMK2D (unknown origin) at 1 uM by Ambit Kinomescan binding assay relative to control; values are per cent of control.
For assay [4], the target named is Serine/threonine-protein kinase 35 (Homo sapiens) (UniProt Q8TDR2). Nature of the assay: Inhibition of STK35 (unknown origin) at 1 uM by Ambit Kinomescan binding assay relative to control.
The target of assay [5] is Protein kinase C eta type (Homo sapiens) (UniProt P24723). Briefly: Inhibition of PRKCH (unknown origin) at 1 uM by Ambit Kinomescan binding assay relative to control; values are per cent of control.
Chain of Protein kinase C eta type (Homo sapiens) (P24723 whole entry): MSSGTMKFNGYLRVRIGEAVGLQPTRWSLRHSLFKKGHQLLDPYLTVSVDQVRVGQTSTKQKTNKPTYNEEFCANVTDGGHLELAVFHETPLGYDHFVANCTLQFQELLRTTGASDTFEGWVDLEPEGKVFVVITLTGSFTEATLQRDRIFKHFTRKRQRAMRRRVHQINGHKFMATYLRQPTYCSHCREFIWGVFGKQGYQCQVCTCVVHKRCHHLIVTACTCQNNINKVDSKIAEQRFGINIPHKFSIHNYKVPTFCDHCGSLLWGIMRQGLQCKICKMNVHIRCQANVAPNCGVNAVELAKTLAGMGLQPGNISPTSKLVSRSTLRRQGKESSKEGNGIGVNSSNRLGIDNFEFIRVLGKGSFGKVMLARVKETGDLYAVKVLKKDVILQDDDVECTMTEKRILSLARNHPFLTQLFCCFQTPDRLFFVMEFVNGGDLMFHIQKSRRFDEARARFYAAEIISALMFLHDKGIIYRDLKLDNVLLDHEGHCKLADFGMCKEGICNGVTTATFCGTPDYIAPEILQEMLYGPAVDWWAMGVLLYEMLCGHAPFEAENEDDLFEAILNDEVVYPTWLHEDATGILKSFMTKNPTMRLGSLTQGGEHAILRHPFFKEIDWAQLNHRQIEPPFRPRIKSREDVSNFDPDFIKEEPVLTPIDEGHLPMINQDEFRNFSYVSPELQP
Assay [6] concerns the target Serine/threonine-protein kinase Chk2 (Homo sapiens) (UniProt O96017). Briefly: Inhibition of CHEK2 (unknown origin) at 1 uM by Ambit Kinomescan binding assay relative to control.
The target in assay [7] is Mitogen-activated protein kinase kinase kinase 4 (Homo sapiens) (UniProt Q9Y6R4). Nature of the assay: Inhibition of MAP3K4 Lys2 labeling site in human A-375 cells at 0.05 uM by KiNativ Profiling analysis relative to control. It counts as cell-based.
Chain of Mitogen-activated protein kinase kinase kinase 4 (Homo sapiens) (Q9Y6R4 whole entry): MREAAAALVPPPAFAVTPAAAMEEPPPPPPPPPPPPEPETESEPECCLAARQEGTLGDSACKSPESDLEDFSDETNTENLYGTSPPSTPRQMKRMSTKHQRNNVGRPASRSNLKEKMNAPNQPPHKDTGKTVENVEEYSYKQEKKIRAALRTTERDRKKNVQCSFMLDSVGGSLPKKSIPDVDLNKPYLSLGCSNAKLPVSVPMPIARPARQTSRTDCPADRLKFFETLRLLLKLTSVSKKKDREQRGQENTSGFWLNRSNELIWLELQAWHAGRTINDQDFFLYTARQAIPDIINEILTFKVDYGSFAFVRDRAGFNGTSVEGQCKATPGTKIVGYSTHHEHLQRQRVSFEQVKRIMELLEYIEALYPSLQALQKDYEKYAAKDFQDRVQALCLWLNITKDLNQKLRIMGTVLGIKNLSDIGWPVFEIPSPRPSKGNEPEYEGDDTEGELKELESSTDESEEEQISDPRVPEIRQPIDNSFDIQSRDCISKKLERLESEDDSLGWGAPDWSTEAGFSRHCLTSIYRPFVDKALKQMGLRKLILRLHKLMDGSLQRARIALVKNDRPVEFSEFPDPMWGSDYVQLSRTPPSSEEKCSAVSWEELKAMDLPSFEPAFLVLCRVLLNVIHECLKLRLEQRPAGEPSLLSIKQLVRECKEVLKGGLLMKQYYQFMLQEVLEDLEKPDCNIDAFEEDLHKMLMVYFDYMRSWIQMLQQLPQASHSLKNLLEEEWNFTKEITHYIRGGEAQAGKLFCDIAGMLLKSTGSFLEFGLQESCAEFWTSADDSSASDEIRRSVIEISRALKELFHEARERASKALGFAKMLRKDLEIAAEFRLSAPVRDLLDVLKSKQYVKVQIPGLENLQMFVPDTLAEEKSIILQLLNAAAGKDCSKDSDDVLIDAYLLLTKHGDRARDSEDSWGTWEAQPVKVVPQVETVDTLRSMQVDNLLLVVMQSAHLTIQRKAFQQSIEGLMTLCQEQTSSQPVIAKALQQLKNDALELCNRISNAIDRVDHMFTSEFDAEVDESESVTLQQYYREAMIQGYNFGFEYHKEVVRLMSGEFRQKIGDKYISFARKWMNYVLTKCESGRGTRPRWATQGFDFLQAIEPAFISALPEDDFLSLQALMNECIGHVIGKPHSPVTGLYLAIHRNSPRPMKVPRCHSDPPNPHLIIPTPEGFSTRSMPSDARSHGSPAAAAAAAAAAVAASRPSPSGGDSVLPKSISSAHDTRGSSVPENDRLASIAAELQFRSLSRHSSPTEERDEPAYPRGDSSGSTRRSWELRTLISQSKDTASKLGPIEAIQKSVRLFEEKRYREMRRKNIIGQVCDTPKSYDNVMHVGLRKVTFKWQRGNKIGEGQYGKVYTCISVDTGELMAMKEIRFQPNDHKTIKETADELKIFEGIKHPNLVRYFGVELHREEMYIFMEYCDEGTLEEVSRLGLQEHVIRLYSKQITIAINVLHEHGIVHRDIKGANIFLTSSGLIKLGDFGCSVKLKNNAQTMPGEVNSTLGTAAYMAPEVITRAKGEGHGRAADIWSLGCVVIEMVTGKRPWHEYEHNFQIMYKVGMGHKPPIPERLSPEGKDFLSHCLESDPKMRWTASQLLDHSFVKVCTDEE
Assay [8] concerns the target Phosphatidylinositol 4-kinase alpha (Homo sapiens) (UniProt P42356). Briefly: Inhibition of PI4KA ATP labeling site in human A-375 cells at 0.05 uM by KiNativ Profiling analysis relative to control. The assay is classed as cell-based.
For assay [9], the target named is Dual specificity testis-specific protein kinase 1 (Homo sapiens) (UniProt Q15569). Briefly: Inhibition of TESK1 (unknown origin) at 1 uM by Ambit Kinomescan binding assay relative to control.
In assay [10] the target is Receptor tyrosine-protein kinase erbB-3 (Homo sapiens) (UniProt P21860). Nature of the assay: Inhibition of HER3/ErbB3 Lys1 labeling site in human A-375 cells at 5 uM by KiNativ Profiling analysis relative to control. It counts as cell-based.
For assay [11], the target named is Misshapen-like kinase 1 (Homo sapiens) (UniProt Q8N4C8). Nature of the assay: Inhibition of MINK (unknown origin) at 10 uM by Ambit Kinomescan binding assay.
For assay [12], the target named is Peripheral plasma membrane protein CASK (Homo sapiens) (UniProt O14936). Nature of the assay: Inhibition of CASK K1 labeling site in human Huh-7 cells at 10 uM by KiNativ Profiling analysis relative to control.
In assay [13] the target is T1, Serine/threonine-protein kinase LATS1 (Homo sapiens) (UniProt O95835).
T1 sequence (whole entry): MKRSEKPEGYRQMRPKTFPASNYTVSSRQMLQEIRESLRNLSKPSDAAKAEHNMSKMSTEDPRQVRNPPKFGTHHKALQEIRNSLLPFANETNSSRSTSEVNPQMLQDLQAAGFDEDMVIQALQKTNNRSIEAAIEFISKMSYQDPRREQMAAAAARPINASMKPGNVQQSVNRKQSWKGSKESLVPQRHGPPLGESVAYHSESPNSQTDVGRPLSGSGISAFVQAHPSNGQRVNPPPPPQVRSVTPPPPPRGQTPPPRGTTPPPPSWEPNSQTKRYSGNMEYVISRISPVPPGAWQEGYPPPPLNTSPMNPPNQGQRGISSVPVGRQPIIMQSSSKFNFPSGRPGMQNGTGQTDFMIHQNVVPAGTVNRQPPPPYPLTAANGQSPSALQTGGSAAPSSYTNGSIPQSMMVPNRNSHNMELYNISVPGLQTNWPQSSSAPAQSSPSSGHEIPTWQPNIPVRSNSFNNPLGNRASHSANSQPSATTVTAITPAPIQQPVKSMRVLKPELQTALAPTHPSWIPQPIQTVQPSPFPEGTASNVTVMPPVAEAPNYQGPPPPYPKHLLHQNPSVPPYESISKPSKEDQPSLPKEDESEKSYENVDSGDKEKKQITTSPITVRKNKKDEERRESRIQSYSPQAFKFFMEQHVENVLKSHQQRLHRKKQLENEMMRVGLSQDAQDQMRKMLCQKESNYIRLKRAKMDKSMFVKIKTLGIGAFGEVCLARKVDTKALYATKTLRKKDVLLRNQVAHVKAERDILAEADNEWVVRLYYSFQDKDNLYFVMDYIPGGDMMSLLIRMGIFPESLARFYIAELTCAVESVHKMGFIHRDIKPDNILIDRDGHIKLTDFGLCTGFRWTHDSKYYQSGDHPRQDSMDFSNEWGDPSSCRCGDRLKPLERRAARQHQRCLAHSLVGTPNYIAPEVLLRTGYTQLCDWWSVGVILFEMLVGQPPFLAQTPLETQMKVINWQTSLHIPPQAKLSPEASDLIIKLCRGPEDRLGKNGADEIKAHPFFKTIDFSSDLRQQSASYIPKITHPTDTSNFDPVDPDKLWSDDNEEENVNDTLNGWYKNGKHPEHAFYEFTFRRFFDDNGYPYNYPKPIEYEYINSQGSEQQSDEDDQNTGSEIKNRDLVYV
Nature of the assay: Inhibition of LATS1 Lys2 labeling site in human A-375 cells at 0.05 uM by KiNativ Profiling analysis relative to control. It counts as cell-based.

The target of assay [14] is Activin receptor type-1B (Homo sapiens) (UniProt P36896). Briefly: Inhibition of ACVR1B (unknown origin) at 10 uM by Ambit Kinomescan binding assay.
Chain of Activin receptor type-1B (Homo sapiens) (P36896 whole entry): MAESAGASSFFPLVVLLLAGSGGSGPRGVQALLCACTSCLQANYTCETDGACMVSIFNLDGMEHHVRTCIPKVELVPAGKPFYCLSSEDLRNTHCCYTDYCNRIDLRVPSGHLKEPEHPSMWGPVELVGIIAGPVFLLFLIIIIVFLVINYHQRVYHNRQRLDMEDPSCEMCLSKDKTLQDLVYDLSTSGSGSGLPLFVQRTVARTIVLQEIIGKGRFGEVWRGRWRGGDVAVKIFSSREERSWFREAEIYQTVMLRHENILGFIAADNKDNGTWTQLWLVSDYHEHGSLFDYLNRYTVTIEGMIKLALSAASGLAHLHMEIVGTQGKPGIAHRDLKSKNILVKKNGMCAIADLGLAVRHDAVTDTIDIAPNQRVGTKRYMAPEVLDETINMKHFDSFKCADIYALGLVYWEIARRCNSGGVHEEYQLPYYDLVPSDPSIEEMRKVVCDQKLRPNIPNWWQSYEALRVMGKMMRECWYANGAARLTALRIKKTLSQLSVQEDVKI
In assay [15] the target is T2, Dual specificity mitogen-activated protein kinase kinase 6 (Homo sapiens) (UniProt P52564).
T2 sequence (whole entry): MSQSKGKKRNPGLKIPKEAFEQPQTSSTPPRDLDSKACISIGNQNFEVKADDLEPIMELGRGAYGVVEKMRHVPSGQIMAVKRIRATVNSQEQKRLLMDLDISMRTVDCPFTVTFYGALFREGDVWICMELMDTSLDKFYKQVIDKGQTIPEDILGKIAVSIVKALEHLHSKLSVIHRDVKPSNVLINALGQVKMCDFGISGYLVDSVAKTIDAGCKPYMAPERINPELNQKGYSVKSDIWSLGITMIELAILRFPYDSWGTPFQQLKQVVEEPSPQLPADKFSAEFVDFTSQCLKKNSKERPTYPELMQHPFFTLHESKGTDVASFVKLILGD
Nature of the assay: Inhibition of MAP2K6 ACT labeling site in human Huh-7 cell lysate at 1 uM by KiNativ Profiling analysis relative to control. It counts as subcellular.

Active and inactive are the calls of the source. The calls are words filed in the database; no cut-off is given here.

Chain of Casein kinase II subunit alpha' (Homo sapiens) (P19784 whole entry, looked up): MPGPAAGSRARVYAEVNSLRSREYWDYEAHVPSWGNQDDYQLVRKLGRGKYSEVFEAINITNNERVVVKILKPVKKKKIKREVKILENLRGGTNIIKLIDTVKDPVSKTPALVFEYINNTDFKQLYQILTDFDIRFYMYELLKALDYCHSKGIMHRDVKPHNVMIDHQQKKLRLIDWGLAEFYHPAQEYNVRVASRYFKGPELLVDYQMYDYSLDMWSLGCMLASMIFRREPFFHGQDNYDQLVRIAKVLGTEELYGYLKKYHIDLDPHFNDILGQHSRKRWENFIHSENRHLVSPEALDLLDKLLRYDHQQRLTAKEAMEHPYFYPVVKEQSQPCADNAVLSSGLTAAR
Chain of Calcium/calmodulin-dependent protein kinase type II subunit delta (Homo sapiens) (Q13557 whole entry): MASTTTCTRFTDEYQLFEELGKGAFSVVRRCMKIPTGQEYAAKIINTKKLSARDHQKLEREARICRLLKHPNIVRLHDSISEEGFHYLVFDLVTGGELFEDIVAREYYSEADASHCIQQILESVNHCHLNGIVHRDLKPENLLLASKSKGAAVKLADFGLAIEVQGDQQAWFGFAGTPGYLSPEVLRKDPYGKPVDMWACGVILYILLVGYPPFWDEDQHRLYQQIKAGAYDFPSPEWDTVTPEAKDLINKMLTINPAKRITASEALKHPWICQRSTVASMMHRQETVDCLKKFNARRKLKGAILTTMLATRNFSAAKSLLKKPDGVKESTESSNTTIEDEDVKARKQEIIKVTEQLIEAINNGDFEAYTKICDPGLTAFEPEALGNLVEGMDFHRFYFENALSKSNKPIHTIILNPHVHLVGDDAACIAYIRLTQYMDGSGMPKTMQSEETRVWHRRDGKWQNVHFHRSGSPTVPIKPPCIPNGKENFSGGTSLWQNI
Chain of Receptor-type tyrosine-protein kinase FLT3 (Homo sapiens), P36888 [UNDEFINED MUTATION] (P36888 whole entry, looked up, change not shown): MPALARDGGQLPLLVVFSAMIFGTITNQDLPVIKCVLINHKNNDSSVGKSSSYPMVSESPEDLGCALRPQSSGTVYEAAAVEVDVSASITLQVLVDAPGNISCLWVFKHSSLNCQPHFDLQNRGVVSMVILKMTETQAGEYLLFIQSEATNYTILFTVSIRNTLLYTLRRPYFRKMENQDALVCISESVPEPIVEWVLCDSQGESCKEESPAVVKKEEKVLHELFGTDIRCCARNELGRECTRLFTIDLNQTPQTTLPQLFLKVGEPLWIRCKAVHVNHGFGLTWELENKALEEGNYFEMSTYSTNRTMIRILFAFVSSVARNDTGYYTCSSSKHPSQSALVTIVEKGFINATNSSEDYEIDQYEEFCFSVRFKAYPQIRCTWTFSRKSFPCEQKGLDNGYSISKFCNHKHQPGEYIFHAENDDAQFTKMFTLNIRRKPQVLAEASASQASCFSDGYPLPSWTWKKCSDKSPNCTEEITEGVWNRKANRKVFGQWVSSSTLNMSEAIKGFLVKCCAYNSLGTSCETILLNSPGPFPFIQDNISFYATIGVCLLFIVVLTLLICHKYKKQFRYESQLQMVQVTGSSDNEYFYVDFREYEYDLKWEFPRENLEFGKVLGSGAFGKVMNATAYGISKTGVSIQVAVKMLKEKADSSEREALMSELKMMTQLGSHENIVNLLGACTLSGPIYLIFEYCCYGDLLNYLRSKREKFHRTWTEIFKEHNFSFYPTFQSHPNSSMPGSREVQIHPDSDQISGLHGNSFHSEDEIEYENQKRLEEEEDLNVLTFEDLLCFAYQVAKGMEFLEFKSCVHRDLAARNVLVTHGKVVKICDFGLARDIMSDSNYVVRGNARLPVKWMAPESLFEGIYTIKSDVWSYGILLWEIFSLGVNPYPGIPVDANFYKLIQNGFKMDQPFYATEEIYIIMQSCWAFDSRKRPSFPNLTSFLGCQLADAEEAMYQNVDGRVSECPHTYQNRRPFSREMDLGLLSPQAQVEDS

Turning to `CCN1CCN(Cc2ccc(NC(=O)c3ccc(C)c(/C=C/c4cnc5[nH]ccc5c4OC)c3)cc2C(F)(F)F)CC1`, the residual activity – broadly, what remains of the control signal, in per cent – in assay [1] came out at 1.4%; in assay [2], 77%; in [3], 100%; in [5] it was 100%. The inhibition (in general, the change of the read-out against control, counted positive when it falls) in assay [4] was 65%; in [6], 82%; in assay [7], -0.6%; in assay [8], 0.8%; in assay [9], 100%; in assay [10], -6.6%.
Take `CCN1CCN(Cc2ccc(NC(=O)c3ccc(C)c(Oc4ccnc5[nH]ccc45)c3)cc2C(F)(F)F)CC1`: the inhibition entry in assay [11] and in [14] was “inactive” in each case. Moreover, the inhibition in assay [12] came out at 12%; in assay [13], 14.5%.
On to `CNc1cc(Oc2cc(C(=O)Nc3cc(N4CCN(C)CC4)cc(C(F)(F)F)c3)ccc2C)ncn1`, for which, in assay [15], the inhibition was -1.2%.
